# Assay results published in US20060234919A1, “Use” (priority 2001, published 2006).
# Key:
# Type in all cases: in vivo, rat
# [1] = test system: cyclophosphamide-induced cystitis; test: cyclophosphamide-induced cystitis, plasma protein extravasation (Evans blue); conditions: oxytocin pre-treatment, 4 h
# Experimental: Cyclophosphamide (100 mg/kg) was injected i.p. in barbiturate-anaesthetised rats for the induction of acute cystitis. Control animals were injected with an appropriate volume (4 ml/kg) of the vehicle (154 mmol/l NaCl). Five min prior to the administration of cyclophosphamide or vehicle all animals were injected i.v. with the protein marker, Evans blue (20 mg/kg). At 4 h, when increases in vascular permeability have reached maximum values in this model (Aramori I, Zenkoh J, Morikawa N, O'Donnell N. Asano M, Nakamur K et al. Novel subtype-selective nonpeptide bradykinin antagonists FR167334 and FR173657. Mol Pharmacol 1997; 51: 171-176), the uriny bladder was excised following exsanguination, and the total tissue content of Evans blue was determined as above.
# Plasma protein extravasation in the urinary bladder of anaesthetised rats was made 4 h after i.p. injection of cyclophosphamide (100 mg/kg). Control animals were treated with appropriate volumes of the vehicles ([…] silicone oil or 4 ml/kg 154 mmol/l NaCl solution, respectively). Oxytocin (1 mg/ml) was injected s. c. 1 h before administration of xylene or cyclophosphamide while control rats received DMSO (0.5 ml/kg, s. c.). Plasma protein extravasation is given as total tissue content of the protein marker, Evans blue, given i. v. (20 mg/kg) 5 min prior to the induction of cystitis. […]
# [2] = test system: lipase; test: caerulein-induced pancreatitis, lipase activity in pancreatic tissue; conditions: 1 mg/ml s.c.; caerulein alone 4.87±0.72, control 0.24±0.26
# Experimental: Caerulein-induced pancreatitis: Female Sprague-Dawley rats (200-250 g) were anaesthetized with pentobarbitone sodium and phenobarbitone sodium (each 40 mg/kg, i.p.). The cholecystokinin analogue caerulein (8 nmol/kg in 2 h) was infused via one jugular vein for exocrine hyperstimulation and induction of acute edematous pancreatitis (Lampel M, Kern H F. Acute interstitial pancreatitis in the rat in-duced by excessive doses of a pancreatic secretagogue. Virchows Arch (Pathol Anat) 1997; 373: 97-117), while control animals were infused with a corresponding volume (4 ml/kg/h) of phosphate-buffered saline. Pre-treatment with the kininase II inhibitor captopril ([…], i. p.) was given 30 min prior to the infusion of caerulein. At the end of the experiment, the animals were sacrificed with an overdose of pentobarbital sodium. The pancreatic tissue was dried for 16 h in a vacuum centrifuge and the edema was quantified as fluid wt. per dry wt. of the tissue. For the determination of lipase activity in serum, the blood was collected following decapitation in separate groups of rats. The pancreas of these animals was excised an placed immediately into 2 ml of a 154 mmol/l solution of NaCl. After centrifugation at 2×10^5 m/s^2 for 25 min the supernatant was stored at −80° C. All samples were assayed for lipase activity (lipase test Boehringer Mannheim, Germany).
# [3] = test system: TNF-alpha; test: TNF-alpha in BALF in SDX-induced eosinophilic airway inflammation; conditions: 1 mg/ml s.c.
# Experimental: 12 male Wistar rats aged 11-12 weeks, with an average weight of 323 g, were used in the study. The animals (n=3 in each group) were evaluated at 3 h and 24 h after induced inflammation. These were compared with control animals (n=3 in each group) examined at the same time points. An eosinophilic airway inflammation was induced by intratracheal instillation of SDX particles (G-200 Superfine, Pharmacia & Upjohn, Uppsala, Sweden) dissolved in phosphate-buffered saline (PBS) as previously described (Andersson S E, Zackrisson C, Hemsen A, Lundberg J M. Regulation of lung endothelin content by the glucocorticosteroid budesonide. Biochem Biophys Res Commun 1992, 188:1116-1121) and compared with that in control animals receiving a similar volume of PBS intratracheally. BAL was performed by instillation of 3+2+2 ml of PBS in the right stem bronchus distal to the upper lobe, and the procedure was repeated in the main bronchus on the left side. Immediately after the BAL procedure, the lungs were removed and frozen in liquid nitrogen for tissue analyses 3 h and 24 h after SDX instillation (n=3 animals at each time point) and 3 h and 24 after intratracheal instillation of saline into control animals (n=3). Oxytocin 1 mg/ml was given s.c.
# TNF-alpha was measured with a rat-specific sandwich enzyme-linked immunosorbent assay (ELISA; Factor-Test-X, Genzyme, Cambridge, Mass.). […]
# [4] = test system: allergic rhinitis; test: allergic rhinitis, sneezing and nasal rubbing after antigen challenge in sensitised rats; conditions: % as compared to untreated; topical 10 μl/each nostril 1 h before antigen challenge; counted 30 min
# Experimental: Six-week-old male Wistar rats were housed in an air-conditioned room maintained at about 25° C. with humidity of about 50%. Rats were given a standard laboratory rodent chow and water ad libitum.
# Rats were generally sensitised by injection of 0.6 ml physiological saline containing egg albumin (1 mg), alum (2 mg) and […] killed Bordetella pertussis into the four footpads on the first day. Five days later they were boosted by subcutaneous injection of 1 ml of physiological saline containing egg albumin (0.5 mg) in 10 sites on the back. Then, local sensitisation was performed every day for about one week from day 14 by dripping the egg albumin dissolved in physiological saline (1 mg/ml, 10 μl) into the bilateral nasal cavities using a micropipette.
# After dripping 10 μl of egg albumin dissolved in physiological saline solution (1 mg/ml) into the bilateral nasal cavities, the numbers of nasal rubbing and sneezing were counted for 30 min and was set to 100%.
# In this study, the rats were used following intranasal sensitisation (from day 21 to day 23 after the first sensitisation). On the last day, drugs (saline or oxytocin) were given topically (10 μl/each nostril) 1 h before topical antigen challenge. […] Also saline caused a minor decrease.
substance,measurement,setting,value
Oxytocin,"plasma protein extravasation, Evans blue accumulation in the bladder","[1]; cyclophosphamide 100 mg/kg i.p., cyclophosphamide alone 9.76±4.12",2.56 ± 1.28 mg
same,"plasma protein extravasation, Evans blue accumulation in the bladder",[1]; rats given the vehicle of cyclophosphamide,2.11 ± 1.37 mg
same,active lipase in the pancreatic tissue,[2],1.34±0.29 U/mg
same,TNF-alpha concentration in BALF,[3]; 3 h after SDX provocation,effectively inhibited the increase
same,TNF-alpha level relative to animals not receiving oxytocin,[3]; 24 h after SDX provocation,32%
same,Nasal rubbing,[4],42%
same,Sneezing,[4],52%
